Data published in publication PMC8143456 (Microorganisms, 2021).
Where two headings read alike, the source gives them in different places.

Assays:
[1] = molecular target: SARS-CoV-2 RNA polymerase complex (nsp12/nsp7/nsp8) (Severe acute respiratory syndrome coronavirus 2, UniProt P0DTD1); test: SARS-CoV-2 RdRp primer extension assay; format: biochemical; details: 14-nucleotide RNA product on gel
SARS-CoV-2 [2] = test: Time-of-drug-addition assay in Vero cells; format: cell-based; details: compound at EC90, Vero cells, MOI 0.1
SARS-CoV-2 [3] = details: Vero E6 cells ref 31; cited from earlier work
SARS-CoV-2 3CL = details: enzyme-inhibition experiments ref 31; read-out: IC50, antiprotease activity against SARS-CoV-2 3CL; cited from earlier work
SARS-CoV-2 [4] = test: SARS-CoV-2 antiviral activity assay in Calu-3 cells; format: cell-based
SARS-CoV-2 nsp12 (RdRp) = SARS-CoV-2 nsp12 (RdRp) (Severe acute respiratory syndrome coronavirus 2, UniProt P0DTD1); details: nsp12, 50 µM compound vs DMSO
[5] = Cytotoxicity in Calu3 cells; details: human
SARS-CoV-2 [6] = test: microbe, parasite or virus in culture; format: cell-based; details: for EC50: read-out: Antiviral Activity against SARS-CoV-2 Vero EC50; for EC90: read-out: Antiviral Activity against SARS-CoV-2 Vero EC90; for inhibition at 20 µM: read-out: inhibition of SARS-CoV-2 in the initial antiviral evaluation assay
SARS-CoV-2 nsp14 = SARS-CoV-2 nsp14 (Severe acute respiratory syndrome coronavirus 2, UniProt P0DTD1); details: nsp14, 50 µM compound vs DMSO
SARS-CoV-2 pseudovirus = test: microbe, parasite or virus in culture; format: cell-based; details: for inhibition at 1.1 µM / inhibition at 3.3 µM / inhibition at 10 µM / inhibition at 30 µM: Severe acute respiratory syndrome-related coronavirus, Huh7.5 cells, vs untreated sample, read-out: SARS-CoV-2 Pseudovirus Entry Inhibition (%)
[7] = molecular target: SARS-CoV-2 nsp5 (3CL protease) (Severe acute respiratory syndrome coronavirus 2, UniProt P0DTD1); details: nsp5, 50 µM compound vs DMSO
[8] = MTS cytotoxicity assay in Vero cells; details: African green monkey
[9] = test system: SARS-CoV-2 3CL protease (nsp5); design: method as in PMID 32746637; details: previous report ref 29; read-out: IC50, enzymatic activity of SARS-CoV-2 3CL protease (nsp5); cited from earlier work
[10] = Severe acute respiratory syndrome coronavirus 2, human Calu-3 cells, read-out: Antiviral Activity against SARS-CoV-2 Calu-3 EC50
[11] = Severe acute respiratory syndrome coronavirus 2, human Calu-3 cells, read-out: Antiviral Activity against SARS-CoV-2 Calu-3 EC90
[12] = Severe acute respiratory syndrome coronavirus 2, 48 h, Vero cells, MOI 0.1, virus yield 2 days post-treatment
[13] = Severe acute respiratory syndrome coronavirus 2, Vero
[14] = Severe acute respiratory syndrome coronavirus 2, Vero, 48 h

| Compound | inhibition of SARS-CoV-2 RdRp activity (in words) [1] | time of addition post-infection up to which replication is significantly inhibited (SARS-CoV-2 [2]) | EC50 (SARS-CoV-2 [3]) [µM] | IC50 (SARS-CoV-2 3CL) [µM] | EC50 (SARS-CoV-2 [4]; [10]) [µM] | EC90 (SARS-CoV-2 [4]; [11]) [µM] | EC50 (SARS-CoV-2 [6]; [12]) [µM] | EC90 (SARS-CoV-2 [6]; [12]) [µM] | inhibition at 20 µM (SARS-CoV-2 [6]; [13]) [%] | inhibitory activity on SARS-CoV-2 cell entry (in words) (SARS-CoV-2 pseudovirus) | inhibition at 1.1 µM (SARS-CoV-2 pseudovirus) [%] | inhibition at 3.3 µM (SARS-CoV-2 pseudovirus) [%] | inhibition at 10 µM (SARS-CoV-2 pseudovirus) [%] | inhibition at 30 µM (SARS-CoV-2 pseudovirus) [%] | CC50 [5] [µM] | also measured |
| --- | --- | --- | --- | --- | --- | --- | --- | --- | --- | --- | --- | --- | --- | --- | --- | --- |
| O=c1cc(-c2ccccc2)oc2cc(O)c(O)c(O)c12 [Baicalein, baicalein] | more potent inhibition of SARS-CoV-2 RdRp activity compared to baicalin | up to 8 h | 2.94 | 0.94 | 1.2 ± 0.03 | 6.2 ± 0.04 | 4.5 ± 0.2 | 7.6 ± 0.3 | 99.8 | no inhibitory activity | -2 | -1.9 | 3.9 | 14.6 |  | ΔTm (SARS-CoV-2 nsp12 (RdRp)): 3.9 °C; CC50 ([5]; Calu3 cells): 91 ± 0.05 µM; ΔTm (SARS-CoV-2 nsp14): 1.5 °C; ΔTm [7]: 0.9 °C |
| O=C(O)[C@H]1O[C@@H](Oc2cc3oc(-c4ccccc4)cc(=O)c3c(O)c2O)[C@H](O)[C@@H](O)[C@@H]1O [Baicalin, baicalin] | inhibit the activity of the SARS-CoV-2 RdRp | up to 6 h | 27.9 | 6.41 | 8 ± 0.11 | 15.1 ± 0.2 | 9 ± 0.08 | 15.8 ± 0.2 | 98 | no inhibitory activity | -12.1 | -11.9 | -6.6 | -3.3 | > 100 | CC50 at 4 days [8]: > 100 µM; IC50 [9]: 34.7 µM |
| CCC(CC)COC(=O)[C@H](C)N[P@](=O)(OC[C@H]1O[C@@](C#N)(c2ccc3c(N)ncnn23)[C@H](O)[C@@H]1O)Oc1ccccc1 [Remdesivir, reference compound] |  |  |  |  |  |  |  |  |  |  |  |  |  |  | > 100 | EC50 (SARS-CoV-2 [4]; Severe acute respiratory syndrome coronavirus 2, Calu-3, read-out: Antiviral Activity against SARS-CoV-2 Calu-3 EC50): 0.14 ± 0.02 µM; EC90 (SARS-CoV-2 [4]; Severe acute respiratory syndrome coronavirus 2, Calu-3, read-out: Antiviral Activity against SARS-CoV-2 Calu-3 EC90): 0.5 ± 0.03 µM; EC50 (SARS-CoV-2 [6]; [14]): 1 ± 0.1 µM; EC90 (SARS-CoV-2 [6]; [14]): 3.3 ± 0.3 µM |
